# Entries after “also recorded” stand apart in the source; their conditions may differ.
# Legend:
# [1] = test system: Th17 cells (Th17n, Th17p); assay: Legendplex analysis of cytokines in culture supernatant; format: cell-based, mouse; conditions: glycolysis enzyme inhibitors; Th17 cell cultures
# Description: (§1) Legendplex. Cytokine concentrations in supernatants of in vitro cultures were analyzed by the LegendPlex Mouse Th Cytokine Panel (13-plex) (BioLegend) according to the manufacturer's instructions and analyzed on a FACS LSR II (BD Biosciences).
# Seahorse assay was performed and seahorse media was prepared following manufacturer instructions (Agilent). Cells were re-stimulated with PMA/ionomycin for four hours in the presence of brefaldin and monensin before analysis for cytokines by intracellular cytokine staining. Cytokine concentrations in supernatants of in vitro cultures were analyzed by the LegendPlex Mouse Th Cytokine Panel (13-plex) (BioLegend) according to the manufacturer's instructions and analyzed on a FACS LSR II (BD Biosciences).
# [2] = test system: Th17 cells (Th17n, Th17p); assay: T cell differentiation culture and flow cytometry (intracellular cytokine and transcription factor staining, CellTrace proliferation); conditions: for IL-17 positive CD4 T cells / IL-17 expression: glycolysis enzyme inhibitors, non-pathogenic or pathogenic Th17 conditions, cells after one division
# Description: Naïve CD4+CD44-CD62L+CD25-T cells were sorted using BD FACSAria sorter and activated with plate-bound anti-CD3 (1 μg/ml) and antiCD28 antibodies (2 μg/ml) in the presence of cytokines at a concentration of 5×10^5 cells/ml.
# Naïve CD4+CD44-CD62L+CD25− T cells with or without including IL-17A.GFP+ were sorted using BD FACSAria sorter and activated with plate-bound anti-CD3 and antiCD28 antibodies (each 1 μg/ml) in the presence of cytokines at a concentration of 5×10^5 cells/ml. For T cell differentiations the following combinations of cytokines were used: pathogenic Th17 (Th17p): 25 ng/ml rmIL-6, 20 ng/ml rmIL-1b (both Miltenyi Biotec) and 20 ng/ml rmIL-23 (R&D systems); non-pathogenic Th17 (Th17n): 25 ng/ml rmIL-6 and 2 ng/ml of rhTGFb1 (Miltenyi Biotec). For differentiation experiments, cells were harvested at 72 hours and were performed in the presence or absence of 50 μM EGCG (Selleck Chemicals), 50 μM DHEA, 40 μM DCA, 10 μM Shikonin (all Sigma) as indicated.
# Proliferation was assessed by staining with CellTrace Violet (Thermo Fisher Scientific) per manufacturer's instructions. All stainings were analyzed on a FACS LSR II (BD Bioscience) and using FlowJo software.
# [3] = test system: Th17n, Th17p and iTreg cells; assay: Population (bulk) RNA-seq of in vitro differentiated T cells; format: cell-based, mouse
# Description: (§2) RNA-seq. For population (bulk) RNA-seq, in vitro differentiated T-cells were sorted for live cells and lysed with RLT Plus buffer and RNA was extracted using the RNeasy Plus Mini Kit (Qiagen). Full-length RNA-seq libraries were prepared as previously described and paired-end sequenced (75 bp×2) with a 150 cycle Nextseq 500 high output V2 kit.
# Bulk RNA-Seq and SMART-Seq2 analysis. Applicants aligned single-cell SMART-Seq2 libraries with Bowtie2, quantified TPM gene expression with RSEM, and performed QC as Applicants described in detail in a previous publication^51. This computational pipeline is a massively revised and updated version of the one originally used to analyze these libraries^19. Batch effects and other nuisance factors were normalized with a model chosen empirically with SCONE ^52. Bulk RNA-Seq were processed with a modified variant of the same pipeline. In the absence of UMIs, differentially expressed genes were called through a linear model fitted to TPM values with the limma R package and with a mean-variance trend added to the empirical bayes prior^53,54.
# as §2
# Bulk RNA libraries from DFMO- or vehicle-treated Th17p, Th17n, or Treg were studied with 3 replicates per condition for a total of 18 libraries as shown in FIG. 36A. Genes that are associated with a Th17 or Treg programs (orange and purple, respectively, in FIG. 36B-C) were determined by differential expression test between bulk RNA libraries of (vehicle-treated) Th17n and Th17p on one side and Treg on the other with BH-adjusted p<0.05 and absolute value of log 2 fold-change of at least 1.5. Genes associated with the Th17p or Th17n program (magenta and green, respectively, in FIG. 40A) were determined by differential expression test between bulk RNA libraries of (vehicle-treated) Th17p vs. Th17n with the same thresholds. The PCA shown in FIG. 36A was computed on the set of 3,414 that were differentially associated with Th17, Treg, Th17p, or Th17n programs by the aforementioned criteria to focus it on the subspace of the transcriptome relevant to Th17 pathogenicity phenotypes.
# Applicants aligned single-cell SMART-Seq libraries with Bowtie2, quantified TPM gene expression with RSEM, and performed QC as Applicants described in detail in a previous publication (Fletcher et al., 2017). This computational pipeline is a massively revised and updated version of the one originally used to analyze these libraries (Gaublomme et al., 2015). Batch effects and other nuisance factors were normalized with a model chosen empirically with SCONE (Cole et al., 2019). Bulk RNA-Seq were processed with a modified variant of the same pipeline.
# For the Smart-Seq libraries, due the absence of UMIs in the dataset, differentially expressed genes were called through a linear model _tted to TPM values with the limma R package and with a mean-variance trend added to the empirical Bayes prior (Ritchie et al., 2015). For the bulk RNA libraries, differentially expressed genes were called with limma-trend or limma-voom (Law et al., 2014) depending on the variance of library sizes, as recommended in the limma package manual (Smyth, 2019).
# [4] = test system: MOG35-55 specific T cells; assay: Antigen-specific recall response of draining lymph node cells to MOG35-55 (thymidine incorporation, Legendplex); format: in vivo, mouse; conditions: mice transferred with DHEA-treated Th17p cells
# Description: FIG. 37A-37I—Targeting ODC1 and SAT1 alleviate EAE. (A) Schematics of the polyamine pathway; (B-D) The effects of chemical inhibition of ODC1 by DFMO on EAE. Wildtype mice were immunized with MOG35-55/CFA to induce experimental autoimmune encephalomyelitis and followed for clinical scoring. DFMO were provided in drinking water from day 0 for 10 days in experimental group. B, Clinical score over time. […] C, Antigen-specific cell proliferation is measured by thymidine incorporation after culturing cells isolated from draining lymph node of mice (d15 post immunization) with increasing dose of MOG35-55 peptide for 3 days. D, Flow cytometric analysis of intracellular Foxp3 expression in T cells isolated from CNS at day 15 post immunization. (E-I) The effects of genetic perturbation of SAT1. E, The effects of SAT1 deficiency on metabolome. Abundance of metabolites in the polyamine pathway were determined by LC/MS based metabolomics. Th17n and Th17p cells were differentiated in vitro from naïve cells isolated from WT or SAT1^−/− mice. (F-I) The effects of SAT1 deficiency on EAE. EAE were induced as in (B) in wildtype and SAT1^fl/flCD4^cre mice. F, Clinical score (left) and histological score (right) showing the number of CNS infiltrates show representative experiment with 5 WT and 8 CKO mice. G-H, Cells were isolated from draining lymph node of mice (d23 post immunization) and co-cultured with increasing dose of MOG35-55 peptide for 3 days. Antigen-specific cell proliferation is measured by thymidine incorporation (G) and antigen-specific cytokine secretion by legendplex (H). I, Flow cytometry analysis of intracellular transcription factor expression in CD4 T cells isolated from CNS day 15 post immunization. Linear regression analysis (b, c, f, g), two-way anova (e) and student t test (d, i) were used for statistical analysis.
# FIG. 46A-46J—EGCG exacerbates and DHEA ameliorates Th17-induced EAE in vivo. 2D2 TCR-transgenic Th17 cells were adoptively transferred after differentiation in vitro in the presence of an inhibitor or vehicle as indicated. (A, C, G) Clinical outcome of EAE; (B, D) Histological score based on cell infiltrates in meninges and parenchyma of CNS; (E, F) Draining lymph node (cervical) from respective mice were isolated and pulsed with increasing dose of MOG35-55 peptide for 3 days and (E) subjected to thymidine incorporation assay; or (F) measurement of cytokine secretion by Legendplex and flow cytometry. Concentrations were normalized through division by the respective response to no antigen control (H-I) Independent pathological report of CNS isolated from mice with EAE at end point (d35 for EGCG experiments; d28 for DHEA experiment); Optic nerves were not found in the histologic section from one animal in the EGCG+IL-23 group. (J) Representative histology of spinal cord and spinal nerve roots. […] PC, posterior column; PH, posterior horn. Individual mouse numbers are indicated. […] All are H. & E., 40× objective. Three similar experiments were performed.
# [5] = test system: experimental autoimmune encephalomyelitis (EAE); assay: Adoptive transfer EAE with 2D2 TCR-transgenic Th17 cells differentiated in the presence of inhibitor; format: in vivo, mouse
# Text: For adoptive transfer EAE, naïve 2D2 transgenic T cells were sorted and differentiated into Th17n cells+/−EGCG or Th17p+/−DHEA as described for three days followed by a resting phase in the presence of IL-23 alone for 2 days. Cells were then harvested and restimulated with plate-bound anti-CD3 and anti-CD28 for 2 days prior to transfer. 2-8 million cells were transferred per mouse intravenously.
# For adoptive transfer EAE, naive T cells (CD4+CD44-CD62L+CD25-) were isolated from 2D2 TCR-transgenic mice and activated with anti-CD3 ([…]) and anti-CD28 ([…]) in the presence of differentiation cytokines for 68h. Cells were rested for 2 days and restimulated with plate-bound anti-CD3 (0.5 mg/ml for pathogenic condition; […] for non-pathogenic condition) and anti-CD28 ([…]) for 2 days prior to transfer. Equal number (2 to 8 million) cells were transferred per mouse intravenously.
# UTX (KDM6A) = UTX (KDM6A) (Homo sapiens, UniProt O15550); conditions: cited from earlier work
# KDMSB = KDMSB (Homo sapiens, UniProt Q9UGL1); conditions: cited from earlier work
# KDMSC = KDMSC (Homo sapiens, UniProt P41229); conditions: cited from earlier work
# KDMSA = KDMSA (Homo sapiens, UniProt P29375); conditions: cited from earlier work
# [6] = test system: other histone demethylases; conditions: cited from earlier work
# 100 protein kinases = conditions: at a concentration of 30 μM; cited from earlier work
# Th17n and Th17p cells = assay: Seahorse assay, oxygen consumption rate; format: cell-based, mouse; conditions: 40 uM etomoxir
# Description: FIG. 44A-44I—Differential usage of glycolysis and fatty acid oxidation by pathogenic and non-pathogenic Th17 cells. (A) A diagram of central carbon metabolism, overlaid with Compass prediction for differential potential activity between Th17p and Th17n. […] (B) Th17n, Th17p and Treg cells were differentiated as described (STAR Methods) and replated with Seahorse media at 68h for Seahorse assay. Extracellular acidification rate (ECAR) and oxygen consumption rate (OCR) are reported in response to mitostress test. (C) Th17p and Th17n cells were differentiated and harvested at 68h (left columns) or replated in fresh media with no TCR stimulation or cytokine for 15 minutes (right columns) and subject to LC/MS based metabolomics. (D) Cells were harvested as in C and pulsed with 13C-tagged glucose for 15 minutes. Shown is the ratio of 13C-tagged carbon out of the total carbon content associated with the metabolite (STAR Methods). (E) Th17n and Th17p cells were measured for their oxygen consumption rate in the presence of control or 40 uM etomoxir. […]
# as §1, with “Seahorse assay was performed and seahorse media was prepared following manufacturer instructions (Agilent). […]” for “Legendplex.”
# Sequence of UTX (KDM6A) (O15550 whole entry, species assumed): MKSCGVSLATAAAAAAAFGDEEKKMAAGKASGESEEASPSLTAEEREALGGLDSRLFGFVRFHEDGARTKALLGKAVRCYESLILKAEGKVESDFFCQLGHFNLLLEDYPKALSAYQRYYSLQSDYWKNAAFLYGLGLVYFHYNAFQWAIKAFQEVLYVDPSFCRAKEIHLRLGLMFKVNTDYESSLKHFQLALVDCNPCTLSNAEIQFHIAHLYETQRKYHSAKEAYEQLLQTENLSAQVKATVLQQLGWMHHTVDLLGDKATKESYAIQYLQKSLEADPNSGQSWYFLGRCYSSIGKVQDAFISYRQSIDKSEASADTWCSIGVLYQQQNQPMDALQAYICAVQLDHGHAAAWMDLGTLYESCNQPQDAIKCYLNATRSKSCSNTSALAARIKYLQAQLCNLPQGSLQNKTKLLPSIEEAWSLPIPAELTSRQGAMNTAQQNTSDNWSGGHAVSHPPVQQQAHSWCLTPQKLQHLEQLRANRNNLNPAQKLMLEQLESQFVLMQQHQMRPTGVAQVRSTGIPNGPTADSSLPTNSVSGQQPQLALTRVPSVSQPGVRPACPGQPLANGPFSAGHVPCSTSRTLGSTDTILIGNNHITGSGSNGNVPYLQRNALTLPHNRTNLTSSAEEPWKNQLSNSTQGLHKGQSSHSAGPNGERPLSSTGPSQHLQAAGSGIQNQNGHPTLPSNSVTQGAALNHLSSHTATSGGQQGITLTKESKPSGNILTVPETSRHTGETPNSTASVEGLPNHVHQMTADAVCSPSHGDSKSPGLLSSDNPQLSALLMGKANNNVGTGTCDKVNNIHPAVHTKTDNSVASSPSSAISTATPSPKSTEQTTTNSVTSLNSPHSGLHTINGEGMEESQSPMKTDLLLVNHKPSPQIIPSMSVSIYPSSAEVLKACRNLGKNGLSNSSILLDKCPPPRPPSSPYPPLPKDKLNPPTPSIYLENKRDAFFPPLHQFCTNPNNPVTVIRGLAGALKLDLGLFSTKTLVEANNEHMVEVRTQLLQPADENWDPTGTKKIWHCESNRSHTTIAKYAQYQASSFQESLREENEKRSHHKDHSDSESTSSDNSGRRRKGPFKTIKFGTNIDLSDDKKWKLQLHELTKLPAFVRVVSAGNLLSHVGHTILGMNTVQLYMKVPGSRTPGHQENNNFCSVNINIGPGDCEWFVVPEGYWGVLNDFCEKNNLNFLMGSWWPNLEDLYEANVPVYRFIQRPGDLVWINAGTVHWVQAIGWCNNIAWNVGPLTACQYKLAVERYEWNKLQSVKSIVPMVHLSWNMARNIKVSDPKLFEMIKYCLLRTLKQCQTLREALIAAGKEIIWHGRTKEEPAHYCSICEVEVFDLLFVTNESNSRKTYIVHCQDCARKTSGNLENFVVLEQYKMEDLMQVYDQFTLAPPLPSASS
# Sequence of KDMSC (P41229 whole entry): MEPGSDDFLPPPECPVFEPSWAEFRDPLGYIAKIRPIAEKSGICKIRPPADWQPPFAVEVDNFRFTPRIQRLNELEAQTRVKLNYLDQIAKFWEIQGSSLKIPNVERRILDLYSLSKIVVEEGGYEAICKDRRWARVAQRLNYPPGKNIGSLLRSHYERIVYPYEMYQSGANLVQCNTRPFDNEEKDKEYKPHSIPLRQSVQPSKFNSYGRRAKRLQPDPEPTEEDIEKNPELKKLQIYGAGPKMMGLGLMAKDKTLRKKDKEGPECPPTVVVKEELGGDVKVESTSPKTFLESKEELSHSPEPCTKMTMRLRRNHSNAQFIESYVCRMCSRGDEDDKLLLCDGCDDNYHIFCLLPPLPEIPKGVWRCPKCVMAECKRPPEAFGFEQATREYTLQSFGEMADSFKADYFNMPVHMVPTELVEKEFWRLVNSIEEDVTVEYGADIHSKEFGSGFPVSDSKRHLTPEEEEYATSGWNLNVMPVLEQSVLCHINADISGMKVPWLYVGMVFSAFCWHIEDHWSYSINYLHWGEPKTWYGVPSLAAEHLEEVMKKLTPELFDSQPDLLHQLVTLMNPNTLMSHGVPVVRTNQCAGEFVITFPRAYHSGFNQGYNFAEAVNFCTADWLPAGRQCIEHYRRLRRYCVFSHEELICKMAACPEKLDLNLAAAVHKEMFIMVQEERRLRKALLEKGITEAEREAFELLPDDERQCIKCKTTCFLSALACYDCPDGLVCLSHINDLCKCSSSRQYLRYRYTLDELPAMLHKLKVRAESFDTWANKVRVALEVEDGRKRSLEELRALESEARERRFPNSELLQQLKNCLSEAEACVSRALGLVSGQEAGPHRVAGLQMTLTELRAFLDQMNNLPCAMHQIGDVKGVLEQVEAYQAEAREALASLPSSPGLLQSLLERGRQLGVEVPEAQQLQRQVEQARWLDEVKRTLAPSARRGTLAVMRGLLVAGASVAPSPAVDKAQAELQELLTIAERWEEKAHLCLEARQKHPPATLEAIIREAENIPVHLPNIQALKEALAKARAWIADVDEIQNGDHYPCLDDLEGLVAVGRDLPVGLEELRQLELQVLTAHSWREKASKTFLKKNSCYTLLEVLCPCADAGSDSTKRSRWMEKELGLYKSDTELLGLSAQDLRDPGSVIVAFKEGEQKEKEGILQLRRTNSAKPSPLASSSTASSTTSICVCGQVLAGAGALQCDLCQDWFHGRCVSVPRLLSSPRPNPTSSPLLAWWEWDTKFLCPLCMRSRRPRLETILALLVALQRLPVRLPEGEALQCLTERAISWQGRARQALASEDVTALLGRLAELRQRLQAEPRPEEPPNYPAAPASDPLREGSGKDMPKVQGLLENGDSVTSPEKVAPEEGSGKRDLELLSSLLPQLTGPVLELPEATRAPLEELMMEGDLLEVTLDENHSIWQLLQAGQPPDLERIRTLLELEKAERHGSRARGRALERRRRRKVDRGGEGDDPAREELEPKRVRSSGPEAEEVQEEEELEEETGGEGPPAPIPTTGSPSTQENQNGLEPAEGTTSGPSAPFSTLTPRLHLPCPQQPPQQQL
# Sequence of KDMSB (Q9UGL1 whole entry): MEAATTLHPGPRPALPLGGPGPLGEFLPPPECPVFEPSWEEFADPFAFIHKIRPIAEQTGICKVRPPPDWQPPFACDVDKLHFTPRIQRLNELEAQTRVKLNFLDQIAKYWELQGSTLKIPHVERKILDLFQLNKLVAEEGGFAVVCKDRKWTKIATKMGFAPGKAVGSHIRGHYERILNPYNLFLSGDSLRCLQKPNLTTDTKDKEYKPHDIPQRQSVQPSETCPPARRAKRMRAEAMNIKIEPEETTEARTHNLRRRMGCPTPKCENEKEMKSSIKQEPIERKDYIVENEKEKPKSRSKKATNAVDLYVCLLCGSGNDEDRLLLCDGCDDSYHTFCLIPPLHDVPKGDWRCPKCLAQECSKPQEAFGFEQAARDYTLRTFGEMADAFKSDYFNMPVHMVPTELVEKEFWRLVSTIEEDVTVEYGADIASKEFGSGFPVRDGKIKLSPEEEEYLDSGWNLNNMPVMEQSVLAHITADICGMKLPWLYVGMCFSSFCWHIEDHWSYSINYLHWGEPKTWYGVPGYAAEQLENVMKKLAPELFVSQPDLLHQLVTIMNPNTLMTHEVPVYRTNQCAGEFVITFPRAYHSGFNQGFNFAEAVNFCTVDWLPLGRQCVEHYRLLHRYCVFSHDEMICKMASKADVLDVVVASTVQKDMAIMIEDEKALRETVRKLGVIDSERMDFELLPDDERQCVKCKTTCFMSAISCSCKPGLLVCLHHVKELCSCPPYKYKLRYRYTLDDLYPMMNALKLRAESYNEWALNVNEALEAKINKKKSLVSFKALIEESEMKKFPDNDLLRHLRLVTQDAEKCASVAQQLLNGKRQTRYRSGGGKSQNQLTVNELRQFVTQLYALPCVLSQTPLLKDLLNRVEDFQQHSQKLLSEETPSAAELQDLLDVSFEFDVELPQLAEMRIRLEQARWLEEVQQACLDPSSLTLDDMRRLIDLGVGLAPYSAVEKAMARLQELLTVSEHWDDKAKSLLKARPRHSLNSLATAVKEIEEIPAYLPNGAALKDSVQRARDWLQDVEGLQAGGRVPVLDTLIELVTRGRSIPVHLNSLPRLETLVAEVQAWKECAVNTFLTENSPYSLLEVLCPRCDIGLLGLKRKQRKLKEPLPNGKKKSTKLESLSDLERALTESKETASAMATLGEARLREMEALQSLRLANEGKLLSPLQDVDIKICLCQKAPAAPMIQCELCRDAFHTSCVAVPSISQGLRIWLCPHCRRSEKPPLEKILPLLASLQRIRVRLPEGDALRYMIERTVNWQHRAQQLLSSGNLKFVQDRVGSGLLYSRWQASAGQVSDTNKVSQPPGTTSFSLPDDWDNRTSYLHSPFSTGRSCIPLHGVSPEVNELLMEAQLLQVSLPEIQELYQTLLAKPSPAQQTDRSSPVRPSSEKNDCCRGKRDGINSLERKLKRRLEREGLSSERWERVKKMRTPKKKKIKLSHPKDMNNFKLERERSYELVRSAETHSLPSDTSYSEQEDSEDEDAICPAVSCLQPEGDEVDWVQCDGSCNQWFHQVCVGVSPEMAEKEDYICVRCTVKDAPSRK
structure (smiles),measurement,setting,value
"O=C(OCC(O)CO)C(Cl)Cl (stereo not shown) [DCA, 2,3-dihydroxypropyl-dichloroacetate]",cytokine profile / cytokine production,[1],retained their cytokine profile
same,IL-17 positive CD4 T cells / IL-17 expression,[2],increase
"C[C@]12CC[C@H](O)CC1=CC[C@@H]1[C@@H]2CC[C@]2(C)C(=O)CC[C@@H]12 [DHEA, dehydroepiandrosterone]",cytokine profile / cytokine production,[1],curtailed cytokine production
same,IL1RN transcripts,[3],significant decrease
same,IL9 transcripts,[3],significant decrease
same,pro-pathogenic transcriptional program / module,[3]; Th17n cells,does not induce an opposite effect
same,decrease in TBX21 (Tbet) transcripts,[3]; Th17p,1 fold
same,pathogenic program,[3]; Th17p cells,suppresses the pathogenic program
same,IL23R transcripts,[3]; both Th17p and Th17n,significant decrease
same,TBX21 transcripts,[3]; both Th17p and Th17n,significant decrease
same,decrease in IL-23R transcripts,[3]; both Th17p and Th17n,over 3 fold
same,position on PC1 (pathogenicity phenotype),[3]; bulk RNA-Seq of d1 Th17n and Th17p cells,shifted them to a less pathogenic state
same,IL-2 secretion in response to MOG,[4],increased
same,antigen-specific cytokine secretion in response to MOG,[4],no significant alterations
same,optic neuritis/perineuritis in host mice,"[5]; EGCG on Th17n, DHEA on Th17p",restricted
same,EAE induced by Th17p cells,[5]; Th17p cells differentiated with inhibitor vs vehicle,induced a milder form of the disease; also recorded: alleviates EAE; also recorded: reduced the severity of disease at peak of EAE; also recorded: ameliorates
same,IL-17 positive CD4 T cells / IL-17 expression,[2],decrease
O=C(O)CCNc1cc(N2CCc3ccccc3CC2)nc(-c2ccccn2)n1 [GSK-J1],IC50,UTX (KDM6A),53 nM
same,IC50,KDMSB,170 nM
same,IC50,KDMSC,550 nM
same,IC50,KDMSA,6800 nM
same,IC50,[6],> 20000 nM
same,inhibitory activity against 100 protein kinases,100 protein kinases,no significant inhibitory activity
CCOC(=O)[C@@]1(CCCCCCOc2ccc(Cl)cc2)CO1 [etomoxir],oxygen consumption rate,Th17n and Th17p cells,decreased
NCCCCN [putrescine],rescue by putrescine of the observed effects of ODC1−/−,[2]; ODC1−/− Th17 cells,rescued
same,reversal by putrescine of the upregulation of Foxp3 by SAT1 inhibitor,"[2]; Th17n cells, 2.5 mM putrescine",partially reversed
same,rescue of the effect of DFMO by addition of putrescine,"[2]; cells treated with DFMO, 2.5 mM putrescine",rescues the effect of DFMO; also recorded: completely reversed their phenotype
same,rescue by putrescine of the effect of diminazene aceturate,[2]; non-pathogenic Th17 cells,rescues the effect of diminazene aceturate
same,rescue of the effect of DFMO by addition of putrescine,[2]; non-pathogenic Th17 cells,rescues the effect of DFMO
same,rescue by putrescine of the DFMO-induced increase in FoxP3 CD4 T cells,[2]; nonpathogenic Th17 cells,rescues the increase in FoxP3 CD4 T cells
same,rescue of the effect of DFMO by addition of putrescine,[2]; pathogenic and non-pathogenic Th17 cells,rescues the effect of DFMO

# Reference: US20220142948A1, “COMPOSITIONS AND METHODS FOR MODULATING METABOLIC REGULATORS OF T CELL PATHOGENICITY” (The Broad Institute, Inc., priority 2019, published 2022)
